In US20260055079A1, “PHTHALAZINONE COMPOUNDS AS PARP7 INHIBITORS” (AZKARRA THERAPEUTICS, INC., priority 2022, published 2026):
Read-outs that look alike come from different tables or passages of the source.

What was measured:
[1] = system: AHR ligand-mediated gene transcription; assay: CYP1A1 mRNA by qPCR in mouse embryonic fibroblasts; format: cell-based; settings: MEFs, with or without AHR agonist TCDD
Procedure: FIG. 2A provides CYP1A1 mRNA levels assessed by qPCR after treatment of wild type (WT) MEFs with increasing concentrations of Example 10 in the presence (gray bars) or absence (black bars) of the AHR agonist TCDD (1 nM). FIG. 2B provides the same as in FIG. 2A except with PARP7^−/− MEFs. FIG. 2C provides CYP1A1 mRNA levels assessed by qPCR after treatment of wild type (WT) MEFs with increasing concentrations of TCDD in the presence (gray bars) or absence (black bars) of 100 nM Example 10. FIG. 2D provides the same as in FIG. 2C, except with PARP7−/− MEFs.

PARP2 [2] = target: T1, PARP2 (Homo sapiens (Human), UniProt Q9UGN5); assay: PARP2 biochemical assay; settings: read-out: PARP2 IC50
[3] = system: NCI-H1373 (human lung adenocarcinoma) cells; assay: Cell proliferation assay (CellTiter-Glo), NCI-H1373; format: cell-based; settings: Homo sapiens, NCI-H1373, 144 h; 6 days, CellTiter-Glo; read-out: NCI-H1373 GI50
[4] = system: HARA (human lung squamous cell carcinoma) cells; assay: Cell proliferation assay (CellTiter-Glo), HARA; format: cell-based; settings: Homo sapiens, 144 h; 6 days, CellTiter-Glo; read-out: HARA GI50
[5] = system: CT26 (mouse colon adenocarcinoma) cells; assay: Cell proliferation assay (CellTiter-Glo), CT26; format: cell-based; settings: Mus musculus, CT26, 144 h, 6 days
PARP1 = PARP1 (Homo sapiens (Human), UniProt P09874); assay: PASTA biochemical PARP screening assay, PARP1
PARP2 [6] = target: T1, PARP2; assay: PASTA biochemical PARP screening assay, PARP2
PARP3 = PARP3 (Homo sapiens (Human), UniProt Q9Y6F1); assay: PASTA biochemical PARP screening assay, PARP3
Procedure: For PARP3, PARP4bc, and PARP16, 200-350 ng of PARP was directly adhered to nickel coated 96-well plates for 60 min at 25° C. in PBR PARP3 was activated by Dnick 5'P as previously described (Langelier, Marie-France et al. Nucleic acids research vol. 42, 12 (2014): 7762-75.). The plate was washed three times with PBST, once with PBS, and once with PBR. Varying concentrations of inhibitor were pre-incubated with NAD^+ and added to the plate (final NAD^+ concentration: 100 μM for PARP3, PARP4bc; 400 μM for PARP16). The plate was incubated at 30° C. for 60 min, then washed three times with PBST before blocking with 5% Milk in PBST. […] The plate was then washed three times with PBST and once with PBS before developing as described previously.

PARP4bc = PARP4bc (Homo sapiens, UniProt Q9UKK3); assay: PASTA biochemical PARP screening assay, PARP4bc
PARP6 = PARP6 (Homo sapiens (Human), UniProt Q2NL67); assay: PASTA biochemical PARP screening assay, PARP6
GST-tagged PARP7 = GST-tagged PARP7 (Homo sapiens (Human), UniProt Q7Z3E1); assay: PASTA biochemical PARP screening assay, PARP7
Procedure: GST-tagged PARP7 was expressed and purified as previously described (Hutin et al., 2018). Proteins were quantified by an in-gel standard curve of Bovine Serum Albumin (Bio-Rad). For PARP7, 250 ng of PARP7 was adhered to glutathione coated 96-well plates (Thermo Scientific) in PBR for 60 min at RT. […] After washing, varying concentrations of each inhibitor was pre-incubated with 20 μM (2×) 6-a-NAD^+. The solution was added to the plate, diluted to 1× in PBR, and incubated at 30° C. for 60 min. […] The plate was subsequently washed three times in PBST and once in PBS before incubation with Strep-HRP (300 ng/μl BSA, 0.05 ng/μl Strep-HRP (Jackson ImmunoResearch), 1×PBS) for 30 min at RT. The plate was washed three time in PBST and once in PBS before development with QuantaRed Enhanced Chemifluorescent HRP Substrate as described previously.

PARP8 = PARP8 (Homo sapiens (Human), UniProt Q8N3A8); assay: PASTA biochemical PARP screening assay, PARP8
PARP10 = PARP10 (Homo sapiens (Human), UniProt Q53GL7); assay: PASTA biochemical PARP screening assay, PARP10
PARP11 = PARP11 (Homo sapiens (Human), UniProt Q9NR21); assay: PASTA biochemical PARP screening assay, PARP11
PARP12cat = PARP12cat (Homo sapiens (Human), UniProt Q9H0J9); assay: PASTA biochemical PARP screening assay, PARP12cat
PARP14wwe = PARP14wwe (Homo sapiens, UniProt Q460N5); assay: PASTA biochemical PARP screening assay, PARP14wwe
PARP15cat = PARP15cat (Homo sapiens (Human), UniProt Q460N3); assay: PASTA biochemical PARP screening assay, PARP15cat
PARP16 = PARP16 (Homo sapiens (Human), UniProt Q8N5Y8); assay: PASTA biochemical PARP screening assay, PARP16
GFP-PARP7 = GFP-PARP7 (Homo sapiens (Human), UniProt Q7Z3E1); assay: PARP7 MARylation in GFP-PARP7 expressing HEK 293T cells (western blot); format: cell-based; settings: read-out: EC50, decrease in PARP7 MARylation
NCI-H1373 cells = assay: Cell Titer-Glo viability, NCI-H1373; format: cell-based
Procedure: NCI-H1373 cells were seeded in a white 96-well plate (Corning) at a density of 1,000 cells per well. After 24 hours, cells were treated with PARP7 inhibitors and incubated at 37° C. for 6 days. Cell viability was assessed using CellTiter-Glo (CTG) 2.0 (Promega). After addition of the CTG reagent (following manufacturer protocol), the plate was incubated on an orbital shaker for 15 min (protected from light) at room temperature. Chemiluminescence was measured on a Spectra Max i3 (Molecular Devices), normalized to DMSO-treated wells, and IC50 values were calculated by non-linear regression (three-parameter fit) analysis using Prism 9 (GraphPad).

AHR target gene CYP1A1 = assay: CYP1A1 mRNA (AHR target gene) by RT-qPCR in MEFs; format: cell-based, mouse; settings: WT MEFs
IFN-β mRNA = IFN-β mRNA by RT-qPCR in MEFs; format: cell-based, mouse; settings: 100 nM alone

Sequence of GST-tagged PARP7 (Q7Z3E1 whole entry): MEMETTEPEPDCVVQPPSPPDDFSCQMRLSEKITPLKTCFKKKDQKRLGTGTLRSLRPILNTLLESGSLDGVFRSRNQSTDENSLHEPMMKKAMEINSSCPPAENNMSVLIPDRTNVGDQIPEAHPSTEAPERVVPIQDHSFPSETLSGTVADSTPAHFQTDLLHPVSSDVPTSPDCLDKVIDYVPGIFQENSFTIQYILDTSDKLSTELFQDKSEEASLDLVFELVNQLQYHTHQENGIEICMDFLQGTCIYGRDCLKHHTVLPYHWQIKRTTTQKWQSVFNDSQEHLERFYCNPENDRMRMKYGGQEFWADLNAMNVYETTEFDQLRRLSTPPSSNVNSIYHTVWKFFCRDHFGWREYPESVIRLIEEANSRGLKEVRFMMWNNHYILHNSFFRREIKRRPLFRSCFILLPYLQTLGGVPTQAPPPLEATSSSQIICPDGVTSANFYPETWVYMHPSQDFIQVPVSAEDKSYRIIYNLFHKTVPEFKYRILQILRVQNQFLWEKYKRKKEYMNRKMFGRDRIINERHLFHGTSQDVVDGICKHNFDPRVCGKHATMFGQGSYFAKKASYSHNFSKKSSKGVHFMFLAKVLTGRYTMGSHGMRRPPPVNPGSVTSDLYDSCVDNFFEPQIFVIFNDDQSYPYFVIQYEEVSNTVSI
Sequence of PARP1 (P09874 whole entry, species assumed): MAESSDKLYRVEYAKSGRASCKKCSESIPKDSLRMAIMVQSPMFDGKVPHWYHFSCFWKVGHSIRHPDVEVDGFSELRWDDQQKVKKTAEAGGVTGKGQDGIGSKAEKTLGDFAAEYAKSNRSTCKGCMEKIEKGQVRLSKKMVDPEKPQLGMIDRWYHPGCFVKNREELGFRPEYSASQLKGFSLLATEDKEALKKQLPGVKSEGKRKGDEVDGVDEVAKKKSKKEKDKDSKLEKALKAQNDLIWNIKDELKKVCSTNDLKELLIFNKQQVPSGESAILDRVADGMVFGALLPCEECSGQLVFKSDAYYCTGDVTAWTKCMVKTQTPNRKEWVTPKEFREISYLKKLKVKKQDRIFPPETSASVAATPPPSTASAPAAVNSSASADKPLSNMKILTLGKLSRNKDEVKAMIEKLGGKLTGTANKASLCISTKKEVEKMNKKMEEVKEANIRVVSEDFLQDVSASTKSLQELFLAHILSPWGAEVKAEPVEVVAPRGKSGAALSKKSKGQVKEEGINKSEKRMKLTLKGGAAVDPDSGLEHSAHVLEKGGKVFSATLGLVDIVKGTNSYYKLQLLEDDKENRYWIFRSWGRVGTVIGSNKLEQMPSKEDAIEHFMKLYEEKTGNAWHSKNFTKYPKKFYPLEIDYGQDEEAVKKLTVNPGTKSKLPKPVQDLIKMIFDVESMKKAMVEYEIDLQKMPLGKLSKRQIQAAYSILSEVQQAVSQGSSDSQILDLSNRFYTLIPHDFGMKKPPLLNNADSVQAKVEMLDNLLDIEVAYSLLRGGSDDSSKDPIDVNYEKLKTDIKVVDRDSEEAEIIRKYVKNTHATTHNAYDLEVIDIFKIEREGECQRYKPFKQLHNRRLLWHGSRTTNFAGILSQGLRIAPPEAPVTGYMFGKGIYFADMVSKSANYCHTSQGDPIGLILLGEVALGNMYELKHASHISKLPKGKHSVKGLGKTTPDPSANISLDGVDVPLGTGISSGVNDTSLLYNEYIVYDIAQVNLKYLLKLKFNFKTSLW
T1 sequence (Q9UGN5 whole entry): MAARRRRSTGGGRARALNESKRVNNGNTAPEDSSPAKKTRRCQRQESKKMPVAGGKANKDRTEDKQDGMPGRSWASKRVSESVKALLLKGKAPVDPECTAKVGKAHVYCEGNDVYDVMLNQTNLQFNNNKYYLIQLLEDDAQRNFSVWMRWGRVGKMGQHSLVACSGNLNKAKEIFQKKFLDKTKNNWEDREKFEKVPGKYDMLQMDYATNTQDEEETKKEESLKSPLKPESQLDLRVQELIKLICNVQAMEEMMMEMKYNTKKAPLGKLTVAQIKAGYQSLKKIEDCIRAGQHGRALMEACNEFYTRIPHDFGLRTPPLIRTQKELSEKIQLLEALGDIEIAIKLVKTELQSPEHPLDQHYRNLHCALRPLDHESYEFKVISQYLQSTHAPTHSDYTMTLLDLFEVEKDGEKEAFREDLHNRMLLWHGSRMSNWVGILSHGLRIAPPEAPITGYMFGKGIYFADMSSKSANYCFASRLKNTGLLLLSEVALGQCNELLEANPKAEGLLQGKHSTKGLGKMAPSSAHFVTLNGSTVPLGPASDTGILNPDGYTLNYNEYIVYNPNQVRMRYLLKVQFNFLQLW
Sequence of PARP4bc (Q9UKK3 whole entry, looked up): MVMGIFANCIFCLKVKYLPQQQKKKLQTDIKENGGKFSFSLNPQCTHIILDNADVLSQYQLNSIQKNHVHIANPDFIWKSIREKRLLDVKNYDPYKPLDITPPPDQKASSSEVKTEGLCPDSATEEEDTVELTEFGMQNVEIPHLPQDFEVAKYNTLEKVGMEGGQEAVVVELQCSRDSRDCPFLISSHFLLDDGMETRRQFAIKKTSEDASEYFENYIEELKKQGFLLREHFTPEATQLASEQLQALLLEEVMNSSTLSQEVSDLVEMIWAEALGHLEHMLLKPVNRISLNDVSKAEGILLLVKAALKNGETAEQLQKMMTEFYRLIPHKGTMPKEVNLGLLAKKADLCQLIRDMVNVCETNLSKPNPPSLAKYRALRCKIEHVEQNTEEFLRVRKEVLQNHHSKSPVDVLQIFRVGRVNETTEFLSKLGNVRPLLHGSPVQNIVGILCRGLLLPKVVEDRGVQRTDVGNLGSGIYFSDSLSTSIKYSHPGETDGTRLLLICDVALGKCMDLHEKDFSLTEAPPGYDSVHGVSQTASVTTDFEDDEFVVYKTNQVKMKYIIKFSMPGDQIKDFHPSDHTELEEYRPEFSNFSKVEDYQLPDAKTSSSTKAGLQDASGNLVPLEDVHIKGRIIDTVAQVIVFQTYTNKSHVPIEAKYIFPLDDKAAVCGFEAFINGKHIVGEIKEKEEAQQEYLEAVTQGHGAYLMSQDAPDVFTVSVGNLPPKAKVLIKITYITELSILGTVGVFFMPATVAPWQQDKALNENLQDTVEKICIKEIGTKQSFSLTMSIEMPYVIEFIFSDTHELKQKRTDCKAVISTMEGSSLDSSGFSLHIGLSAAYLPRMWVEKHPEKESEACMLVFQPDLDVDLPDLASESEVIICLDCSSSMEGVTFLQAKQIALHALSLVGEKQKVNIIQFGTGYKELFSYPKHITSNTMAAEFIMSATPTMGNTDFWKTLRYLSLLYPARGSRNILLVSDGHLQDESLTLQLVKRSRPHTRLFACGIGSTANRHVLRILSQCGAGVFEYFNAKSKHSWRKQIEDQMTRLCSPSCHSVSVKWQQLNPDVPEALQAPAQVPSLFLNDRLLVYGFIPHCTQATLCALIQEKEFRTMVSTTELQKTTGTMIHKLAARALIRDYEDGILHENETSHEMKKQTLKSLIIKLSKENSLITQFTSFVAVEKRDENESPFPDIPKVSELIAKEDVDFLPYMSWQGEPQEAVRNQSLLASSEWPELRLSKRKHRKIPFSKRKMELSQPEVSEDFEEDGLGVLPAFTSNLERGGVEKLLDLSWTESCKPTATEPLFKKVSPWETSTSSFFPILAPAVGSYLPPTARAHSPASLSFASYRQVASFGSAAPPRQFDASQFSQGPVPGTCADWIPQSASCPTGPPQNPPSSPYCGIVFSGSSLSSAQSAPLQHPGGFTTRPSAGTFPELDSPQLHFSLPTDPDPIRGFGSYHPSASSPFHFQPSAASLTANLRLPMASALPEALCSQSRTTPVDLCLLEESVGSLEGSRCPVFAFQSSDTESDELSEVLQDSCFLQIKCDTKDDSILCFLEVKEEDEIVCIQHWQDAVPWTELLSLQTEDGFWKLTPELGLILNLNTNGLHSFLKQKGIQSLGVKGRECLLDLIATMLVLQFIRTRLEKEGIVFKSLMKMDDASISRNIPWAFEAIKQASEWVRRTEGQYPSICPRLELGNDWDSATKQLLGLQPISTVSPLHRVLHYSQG
Sequence of PARP11 (Q9NR21 whole entry, species assumed): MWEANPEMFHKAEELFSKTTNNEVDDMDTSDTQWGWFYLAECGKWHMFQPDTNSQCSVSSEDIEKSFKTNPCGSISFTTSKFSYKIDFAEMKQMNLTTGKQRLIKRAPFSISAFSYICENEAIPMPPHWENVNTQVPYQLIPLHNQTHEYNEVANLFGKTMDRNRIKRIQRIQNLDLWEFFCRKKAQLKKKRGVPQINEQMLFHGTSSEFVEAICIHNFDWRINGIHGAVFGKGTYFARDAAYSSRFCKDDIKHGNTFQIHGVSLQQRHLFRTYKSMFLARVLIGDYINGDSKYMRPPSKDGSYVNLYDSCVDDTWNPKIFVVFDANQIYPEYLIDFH
Sequence of PARP16 (Q8N5Y8 whole entry, species assumed): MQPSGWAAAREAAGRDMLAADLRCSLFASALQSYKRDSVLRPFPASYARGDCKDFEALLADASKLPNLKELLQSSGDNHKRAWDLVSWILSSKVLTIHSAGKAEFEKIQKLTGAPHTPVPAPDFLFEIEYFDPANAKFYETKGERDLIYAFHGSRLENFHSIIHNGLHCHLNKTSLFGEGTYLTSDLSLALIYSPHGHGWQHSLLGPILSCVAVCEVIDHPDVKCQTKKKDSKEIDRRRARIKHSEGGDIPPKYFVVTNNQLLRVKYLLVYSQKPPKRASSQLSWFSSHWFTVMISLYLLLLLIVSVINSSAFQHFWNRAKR
Sequence of PARP12cat (Q9H0J9 484-698): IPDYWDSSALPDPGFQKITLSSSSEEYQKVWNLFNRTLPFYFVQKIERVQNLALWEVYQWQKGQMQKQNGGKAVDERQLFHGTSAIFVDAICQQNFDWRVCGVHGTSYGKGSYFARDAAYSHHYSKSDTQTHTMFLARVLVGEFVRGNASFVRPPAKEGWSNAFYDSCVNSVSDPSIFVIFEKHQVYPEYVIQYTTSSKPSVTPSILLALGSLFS
Sequence of GFP-PARP7 (Q7Z3E1 whole entry): as the sequence (Q7Z3E1 whole entry) above

`CC#Cc1ccc2c(=O)[nH]nc(Cc3ccc(F)c(C(=O)N4CCN(c5ccc(C#N)cn5)CC4)c3)c2c1` [Example 10, 6-(4-(2-Fluoro-5-((4-oxo-7-(prop-1-ynyl)-3,4-dihydrophthalazin-1-yl)methyl)benzoyl)piperazin-1-yl)nicotinonitrile] was tested. Which “AHR ligand-mediated gene transcription (CYP1A1 mRNA)” value [1] did it give?
Its value is “derepresses AHR ligand-mediated gene transcription”.

And the IC50 (PARP2 [2])?
Its IC50 is 100 to 500 nM.

What about the GI50 [3] of the same molecule?
The GI50 was < 100 nM.

And the GI50 [4]?
Its GI50 is 1000 to 5000 nM.

And the GI50 [5]?
Its GI50 is > 5000 nM.

What about the IC50 (PARP1; read-out: IC50 PARP1) of the same molecule?
Its IC50 is > 3000 nM.

And the IC50 (PARP1; read-out: does not inhibit PARP1 up to)?
The IC50 was > 3000 nM.

And the IC50 (PARP2 [6])?
The IC50 was 1020 nM.

What about the IC50 (PARP3) of the same molecule?
Its IC50 is > 3000 nM.

And the IC50 (PARP4bc)?
Its IC50 is > 3000 nM.

And the IC50 (PARP6)?
The IC50 was 775 nM.

And the IC50 (GST-tagged PARP7)?
Its IC50 is 13.7 nM.

What about the “selectivity for PARP7 over PARP2” value (GST-tagged PARP7) of the same molecule?
The value was ~75 fold.

What about the “selectivity for PARP7 over PARP10 and PARP11” value (GST-tagged PARP7) of the same molecule?
The value was ~10 fold.

And the “selectivity for PARP7 over most PARP family members beyond PARP1 and PARP2” value (GST-tagged PARP7)?
Its value is > 50 fold.

What about the IC50 (PARP8) of the same molecule?
The IC50 was > 3000 nM.

What about the IC50 (PARP10) of the same molecule?
The IC50 was 179 nM.

And the IC50 (PARP11)?
Its IC50 is 134 nM.

And the IC50 (PARP12cat)?
Its IC50 is 762 nM.

And the IC50 (PARP14wwe)?
The IC50 was 1040 nM.

What about the IC50 (PARP15cat) of the same molecule?
The IC50 was 770 nM.

What about the IC50 (PARP16) of the same molecule?
Its IC50 is 1060 nM.

What about the EC50 (GFP-PARP7) of the same molecule?
Its EC50 is 8 nM.

And the “less potent than RBN-2397 on NCI-H1373” value (NCI-H1373 cells)?
The value was ~6 fold.

And the EC50 (NCI-H1373 cells; Homo sapiens, NCI-H1373, 144 h, 6 days, CellTiter-Glo)?
The EC50 was 104 nM.

And the “CYP1A1 mRNA levels” value (AHR target gene CYP1A1; in the absence of TCDD)?
Its value is “had no effect on CYP1A1 mRNA levels”.

What about the “CYP1A1 mRNA levels” value (AHR target gene CYP1A1; in the presence of 1 nM TCDD) of the same molecule?
The value was “dramatically increased CYP1A1 mRNA levels”.

What about the “increase in IFN-β mRNA” value (IFN-β mRNA) of the same molecule?
Its value is 3 fold.
